Measurements: ChEMBL document CHEMBL4321874 (J Med Chem, 2020)
The source made the active and inactive calls. No cut-off for these calls is given here.

What was measured:
[1] = target: Rho-associated protein kinase 1 (Homo sapiens, UniProt Q13464); experiment: Inhibition of N-terminal GST-tagged human ROCK1 catalytic domain (1 to 477 residues) expressed in baculovirus expression system using biotin-STK-substrate 2 as substrate preincubated with enzyme for 5 mins followed by ATP addition and measured after 2 hrs by TR-FRET assay
[2] = Drug metabolism in aqueous media assessed as formaldehyde adduct formation at 5 nmol after 30 mins in presence of excess formaldehyde by QTOF-UPLC analysis
[3] = Drug metabolism in reaction buffer containing 50 mM HEPES, 0.1 mM orthovanadate, 0.01% BSA, 10 mM MgCl2, and 1 mM DTT at pH 7.5
[4] = target: Cyclin-dependent kinase 2/cyclin E1 (Homo sapiens, UniProt P24941); experiment: Inhibition of N-terminal GST-tagged full-length human CDK2 (1 to 298 residues)/Cyclin E (1 to 410 residues) expressed in baculovirus expression system using histone H1 as susbtrate after 90 mins by Kinase-Glo luminescence assay
[5] = Drug metabolism in reaction buffer containing 25 mM HEPES, 0.1% Tween 20, 0.01% BSA, 10 mM Mg(OAc)2, and 1 mM DTT at pH 7.5
Homo sapiens [6] = organism: Homo sapiens; experiment: Selectivity index, ratio of IC50 for N-terminal GST-tagged full-length human CDK2 (1 to 298 residues)/Cyclin E (1 to 410 residues) expressed in baculovirus expression system to IC50 for N-terminal GST-fused full-length human CDC7 (1 to 574 end residues)/DBF4 (1 to 674 residues) expressed in baculovirus expression system
Homo sapiens [7] = organism: Homo sapiens; experiment: Selectivity index, ratio of IC50 N-terminal GST-tagged human ROCK1 catalytic domain (1 to 477 residues) expressed in baculovirus expression system to IC50 for N-terminal GST-fused full-length human CDC7 (1 to 574 end residues)/DBF4 (1 to 674 residues) expressed in baculovirus expression system
[8] = target: T1, CDC7/DBF4 (Cell division cycle 7-related protein kinase/Activator of S phase kinase) (Homo sapiens, UniProt O00311); experiment: Inhibition of N-terminal GST-fused full-length human CDC7 (1 to 574 end residues)/DBF4 (1 to 674 residues) expressed in baculovirus expression system using MCM2 as substrate preincubated with enzyme for 10 mins prior to 1 uM ATP addition by HTRF transcreener ADP assay
[9] = Drug metabolism in reaction buffer containing 20 mM HEPES, 10 mM Mg(OAc)2, and 1 mM DTT at pH 7.5
[10] = target: T2, Cell division cycle 7-related protein kinase (Homo sapiens, UniProt O00311); experiment: Binding affinity to CDC7 (unknown origin) assessed as equilibrium dissociation constant
[11] = target: T1, CDC7/DBF4 (Cell division cycle 7-related protein kinase/Activator of S phase kinase); experiment: Inhibition of N-terminal GST-fused full-length human CDC7 (1 to 574 end residues)/DBF4 (1 to 674 residues) expressed in baculovirus expression system using MCM2 as substrate in presence of 50 uM ATP by HTRF transcreener ADP assay
[12] = target: T2, Cell division cycle 7-related protein kinase; experiment: Inhibition of CDC7 in human HeLa cells assessed as inhibition of MCM2 phosphorylation at Ser40 residue in human HeLa cells after 7 hrs by Western blot analysis; format: cell-based
[13] = target: T1, CDC7/DBF4 (Cell division cycle 7-related protein kinase/Activator of S phase kinase); experiment: Inhibition of N-terminal GST-fused full-length human CDC7 (1 to 574 end residues)/DBF4 (1 to 674 residues) expressed in baculovirus expression system using MCM2 as substrate preincubated with enzyme for 60 mins prior to 50 uM ATP addition by HTRF transcreener ADP assay
COLO 205 = experiment: Antiproliferative activity against human COLO205 cells assessed as reduction in cell growth after 3 days by CellTiter-Glo luminescence assay; format: functional, cell-based; settings: COLO 205, 72 h
[14] = target: Myotonin-protein kinase (Homo sapiens) (UniProt Q09013); experiment: Inhibition of kinase tracer 236 binding to recombinant full-length human GST-tagged DMPK expressed in baculovirus expression system at 1000 nM by Lanthascreen Eu kinase binding assay relative to control
[15] = target: Homeodomain-interacting protein kinase 4 (Homo sapiens) (UniProt Q8NE63); experiment: Inhibition of recombinant full-length human N-terminal GST-tagged HIPK4 expressed in baculovirus expression system at 1000 nM by Z'-LYTE assay relative to control
[16] = target: CDK8/Cyclin C (Homo sapiens) (UniProt P49336+P24863); experiment: Inhibition of kinase tracer 236 binding to recombinant full-length human His-tagged CDK8/CyclinC expressed in baculovirus expression system at 1000 nM by Lanthascreen Eu kinase binding assay relative to control
[17] = target: Dual specificity protein kinase CLK4 (Homo sapiens) (UniProt Q9HAZ1); experiment: Inhibition of kinase tracer 236 binding to recombinant full-length human GST-tagged CLK4 expressed in baculovirus expression system at 1000 nM by Lanthascreen Eu kinase binding assay relative to control
[18] = target: Death-associated protein kinase 1 (Homo sapiens, UniProt P53355); experiment: Inhibition of recombinant human N-terminal GST-tagged DAPK1 catalytic domain (1 to 363 residues) expressed in baculovirus expression system at 1000 nM by Adapta kinase assay relative to control
[19] = target: Serine/threonine-protein kinase 17A (Homo sapiens) (UniProt Q9UEE5); experiment: Inhibition of kinase tracer 236 binding to recombinant full-length human GST-tagged DRAK1 expressed in baculovirus expression system at 1000 nM by Lanthascreen Eu kinase binding assay relative to control
Mus musculus [20] = experiment: Effect on PARP cleavage in tumor in BALB/c mouse xenografted with human COLO205 cells at 100 mg/kg, po measured for 16 hrs post-treatment by Western blot analysis; format: functional, organism-based
Mus musculus [21] = experiment: In vivo inhibition of […] in BALB/c mouse xenografted with human COLO205 cells assessed as MCM2 phosphorylation at Ser 41 residue in tumor at 100 mg/kg, po measured for 16 hrs post-treatment by Western blot analysis; format: functional, organism-based
[22] = target: Death-associated protein kinase 3 (Homo sapiens) (UniProt O43293); experiment: Inhibition of full-length human GST-tagged DAPK3 expresssed in baculovirus expression system at 1000 nM by Z'-LYTE assay relative to control
[23] = target: Glycogen synthase kinase-3 beta (Homo sapiens) (UniProt P49841); experiment: Inhibition of recombinant full-length human His-tagged GSK3beta expressed in baculovirus expression system at 1000 nM by Z'-LYTE assay relative to control
[24] = target: CDK9/cyclin T1 (Homo sapiens) (UniProt O60563+P50750); experiment: Inhibition of full-length recombinant human His-tagged CDK9/Cyclin T1 expressed in baculovirus expression system at 1000 nM by Adapta kinase assay relative to control
[25] = target: Dual specificity tyrosine-phosphorylation-regulated kinase 1A (Homo sapiens, UniProt Q13627); experiment: Inhibition of recombinant full-length human GST-tagged DYRK1A expressed in baculovirus expression system at 1000 nM by Z'-LYTE assay relative to control
[26] = target: Dual specificity protein kinase CLK2 (Homo sapiens) (UniProt P49760); experiment: Inhibition of GST-tagged human recombinant CLK2 catalytic domain (137 to 498 residues) expressed in baculovirus expression system at 1000 nM by Z'-LYTE assay relative to control
[27] = target: Casein kinase I isoform gamma-2 (Homo sapiens) (UniProt P78368); experiment: Inhibition of recombinant full-length human His-tagged CSNK1G2 expressed in baculovirus expression system at 1000 nM by Z'-LYTE assay relative to control
[28] = Drug metabolism assessed as (4bS)-2-(3-Methyl-1H-pyrazol-4-yl)-5,6,7,8-tetrahydropyrido-[1',2':3,4]imidazo[1,5-a]thieno[3,2-d]pyrimidin-12(4bH)-one formaldehyde adduct formation at 5 nmol after 30 mins in presence of excess formaldehyde by QTOF-UPLC analysis
Mus musculus [29] = experiment: Increase in cyclin B1 expression in tumor in BALB/c mouse xenografted with human COLO205 cells at 100 mg/kg, po measured for 16 hrs post-treatment by Western blot analysis; format: functional, organism-based
[30] = target: Dual specificity protein kinase CLK1 (Homo sapiens, UniProt P49759); experiment: Inhibition of recombinant human GST-tagged CLK1 catalytic domain (129 to 484 residues) expressed in Escherichia coli at 1000 nM by Z'-LYTE assay relative to control
[31] = target: Dual specificity tyrosine-phosphorylation-regulated kinase 1B (Homo sapiens, UniProt Q9Y463); experiment: Inhibition of recombinant full-length human GST-tagged DYRK1B expressed in baculovirus expression system at 1000 nM by Z'-LYTE assay relative to control
[32] = target: Glycogen synthase kinase-3 alpha (Homo sapiens) (UniProt P49840); experiment: Inhibition of kinase tracer 236 binding to N-terminal GST-tagged human full length GSK3alpha expressed in baculovirus expression system at 1000 nM by Lanthascreen Eu kinase binding assay relative to control

| SMILES | IC50 [1] | IC50 [4] | Ratio IC50 (Homo sapiens [6]) | Ratio IC50 (Homo sapiens [7]) | IC50 [8] | further results |
| --- | --- | --- | --- | --- | --- | --- |
| Cc1n[nH]cc1-c1cc2nc(C34CCC(CC3)N4)[nH]c(=O)c2s1 | 96 nM | 1500 nM | 9400 | 600 | 0.16 nM | Drug metabolism [2]: Metabolite not detected; Drug metabolism [3]: Metabolite not detected; Drug metabolism [5]: Metabolite not detected; Drug metabolism [9]: Metabolite not detected |
| Cc1n[nH]cc1-c1cc2nc([C@H]3NCC[C@@H]3C)[nH]c(=O)c2s1 | 130 nM | 620 nM | 1000 | 210 | 0.61 nM | – |
| Cc1n[nH]cc1-c1cc2nc([C@]3(C)CCCN3)[nH]c(=O)c2s1 | 270 nM | 9900 nM | 1000 | 28 | 9.8 nM | – |
| Cc1[nH]ncc1-c1cc2nc([C@@H]3CC4CCN3CC4)[nH]c(=O)c2s1 [SIMUROSERTIB] | 430 nM | – | – | – | 0.26 nM | Kd [10]: 0.424 nM; IC50 [11]: 43 nM; IC50 [12]: 17 nM; IC50 [13]: 0.54 nM |
| Cc1n[nH]cc1-c1cc2nc([C@@H]3CCCN3C)[nH]c(=O)c2s1 | 160 nM | > 10000 nM | > 5300 | 84 | 1.9 nM | – |
| Cc1n[nH]cc1-c1cc2nc([C@@H]3CC4CCN3CC4)[nH]c(=O)c2s1 [SIMUROSERTIB] | – | – | – | – | – | Drug metabolism [2]: Metabolite not detected; EC50 (COLO 205): 81 nM; Drug metabolism [3]: Metabolite not detected; Drug metabolism [5]: Metabolite not detected; Drug metabolism [9]: Metabolite not detected |
| Cc1n[nH]cc1-c1cc2nc([C@@H]3CCC(C)(C)N3)[nH]c(=O)c2s1 | 1500 nM | > 10000 nM | > 5300 | 790 | 1.9 nM | – |
| Cc1n[nH]cc1-c1cc2nc(C34CC(CN3)C4)[nH]c(=O)c2s1 | 220 nM | 2700 nM | – | – | 0.16 nM | EC50 (COLO 205): 750 nM; IC50 [11]: 77 nM; IC50 [12]: 130 nM; IC50 [13]: 2.1 nM |
| Cc1n[nH]cc1-c1cc2nc([C@@H]3CCCCN3)[nH]c(=O)c2s1 | – | – | – | – | – | inhibition [14]: 95%; inhibition [15]: 87%; inhibition [16]: 87%; inhibition [17]: 100%; inhibition [18]: 85%; inhibition [19]: 99%; Activity (Mus musculus [20]): inactive; inhibition (Mus musculus [21]): inactive; inhibition [22]: 92%; inhibition [23]: 89%; inhibition [24]: 90%; inhibition [25]: 98%; inhibition [26]: 88%; inhibition [27]: 87%; Drug metabolism [28]: Metabolite detected; Activity (Mus musculus [29]): Active; inhibition [30]: 81%; inhibition [31]: 96%; inhibition [32]: 89% |
| Cc1n[nH]cc1-c1cc2nc([C@H]3CC4CCN3CC4)[nH]c(=O)c2s1 | 460 nM | > 10000 nM | – | – | 1 nM | – |
| Cc1n[nH]cc1-c1cc2nc([C@@H]3CCN3)[nH]c(=O)c2s1 | 760 nM | 6900 nM | 3300 | 360 | 2.1 nM | – |
| Cc1n[nH]cc1-c1cc2nc([C@@H]3CC=CCN3)[nH]c(=O)c2s1 | 340 nM | 4700 nM | 8900 | 640 | 0.53 nM | – |
| Cc1n[nH]cc1-c1cc2nc([C@@H]3C[C@H](C)CN3)[nH]c(=O)c2s1 | 630 nM | 3700 nM | 2800 | 480 | 1.3 nM | – |

More lines, main results first:

| IC50 [1] | IC50 [4] | Ratio IC50 (Homo sapiens [6]) | Ratio IC50 (Homo sapiens [7]) | IC50 [8] | SMILES | further results |
| --- | --- | --- | --- | --- | --- | --- |
| 450 nM | 2800 nM | 2300 | 380 | 1.2 nM | Cc1n[nH]cc1-c1cc2nc([C@@H]3CCCCCN3)[nH]c(=O)c2s1 | – |
| 360 nM | 3900 nM | 5500 | 510 | 0.71 nM | Cc1n[nH]cc1-c1cc2nc([C@@H]3CCCN3)[nH]c(=O)c2s1 | – |
| 370 nM | 4800 nM | – | – | 0.91 nM | Cc1n[nH]cc1-c1cc2nc([C@H]3CCCCN3)[nH]c(=O)c2s1 | – |
| 530 nM | 9500 nM | – | – | 0.43 nM | O=c1[nH]c([C@@H]2CCCCN2)nc2cc(-c3c[nH]nc3C(F)(F)F)sc12 | EC50 (COLO 205): 230 nM; IC50 [11]: 72 nM; IC50 [12]: 41 nM; IC50 [13]: 0.72 nM |
